From patent US20260070929A1, “METHODS AND COMPOSITIONS FOR MODULATING KRAS(G12D)” (Ranok Therapeutics (Hangzhou) Co. LTD., priority 2022, published 2026)

Columns and labels:
[1] = test system: SW1990 pancreatic adenocarcinoma cells [homozygous G12D]; assay: Cancer cell line proliferation (CellTiter-Glo), SW1990; assay type: cell-based; details: Homo sapiens, 72 hr treatment, read-out: SW1990 CTG (EC50)
Outline: (§1)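 A 72 hr proliferation format is used: cells at 4,000/well, pre-grown 72 hr, then treated at 37° C./5% CO2 with 0.5% DMSO final. CellTiter-Glo measures viable cells, from which EC50 is calculated.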

[2] = test system: A-427 lung carcinoma cells [heterozygous G12D]; assay: Cancer cell line proliferation (CellTiter-Glo), A-427; assay type: cell-based; details: Homo sapiens, A-427 cells, 72 hr treatment, read-out: A427 CTG (EC50)
Outline: as §1

[3] = molecular target: T1, KRAS(G12D)/SOS1 (Homo sapiens, UniProt P01116, G12D); assay: KRAS(G12D)/SOS1 homogeneous time-resolved fluorescence (HTRF) assay; assay type: binding; details: absence of GTP; 4° C., 3 hr
T1 construct: purchased Cisbio 63ADK000CB17PEH
Outline: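 Disruption of the KRAS(G12D)/SOS1 pairing, in the absence of GTP, was read by time-resolved FRET after a 3 hr sealed incubation at 4 °C. Test compounds spanned 20 µM down to 1.02 nM in 3-fold steps. IC50 values correspond to half-maximal inhibition.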

[4] = test system: AGS gastric carcinoma cells [heterozygous G12D]; assay: Cancer cell line proliferation (CellTiter-Glo), AGS; assay type: cell-based; details: Homo sapiens, 72 hr treatment, read-out: AGS CTG (EC50)
Outline: as §1

[5] = test system: ASPC1 pancreatic adenocarcinoma cells [homozygous G12D]; assay: Cancer cell line proliferation (CellTiter-Glo), ASPC1; assay type: cell-based; details: Homo sapiens, ASPC1, 72 h, 72 hr treatment, read-out: ASPC-1 CTG (EC50)
Outline: as §1

T1 sequence (P01116 1-188 isoform P01116-2 G12D): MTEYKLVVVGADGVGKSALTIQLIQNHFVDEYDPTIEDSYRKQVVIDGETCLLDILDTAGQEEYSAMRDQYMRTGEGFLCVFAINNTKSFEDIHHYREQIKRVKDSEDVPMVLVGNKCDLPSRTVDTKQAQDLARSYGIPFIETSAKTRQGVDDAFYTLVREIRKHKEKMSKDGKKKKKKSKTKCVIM

| SMILES | EC50 [1] [nM] | EC50 [2] [nM] | IC50 [3] [nM] | EC50 [4] [nM] | EC50 [5] [nM] |
| --- | --- | --- | --- | --- | --- |
| CC(C)c1cc(C(=O)N2Cc3ccc(CN4CCC(CN5CCN(CC6(COc7nc(N8CC9CCC(C8)N9)c8cnc(-c9cccc%10ccccc9%10)c(F)c8n7)CC6)CC5)CC4)cc3C2)c(O)cc1O [Compound 128] | 100 to 1000 | 100 to 1000 | < 100 | 100 to 1000 | 100 to 1000 |
| C#Cc1cccc2cc(O)cc(-c3ncc4c(N5CC6CNC(C6)C5)nc(OCC5(CN6CCN(CC7CCN(Cc8ccc9c(c8)CN(C(=O)c8cc(C(C)C)c(O)cc8O)C9)CC7)CC6)CC5)nc4c3F)c12 (stereo not shown) [Compound 129] | 100 to 1000 | 100 to 1000 | < 100 | 100 to 1000 | > 1000 |
| C#Cc1cccc2cc(O)cc(-c3ncc4c(N5CC6CCC(C5)N6)nc(OCC5(CN6CCN(Cc7ccc(-n8c(C(=O)NCC(F)(F)F)nnc8-c8cc(C(C)C)c(O)cc8O)cc7)CC6)CC5)nc4c3F)c12 [Compound 130] | < 100 | < 100 | < 100 | < 100 | 100 to 1000 |
| C#Cc1cccc2cc(O)cc(-c3ncc4c(N5CC6CCC(C5)N6)nc(OCC5(CN6CCN(Cc7ccc8c(c7)CN(C(=O)c7cc(C(C)C)c(O)cc7O)C8)CC6)CC5)nc4c3F)c12 [Compound 131] | < 100 | 100 to 1000 | < 100 | < 100 | 100 to 1000 |
| C#Cc1cccc2cc(O)cc(-c3ncc4c(N5CC6CCC(C5)N6)nc(OCC5(CN6CCC(OC7CCN(Cc8ccc(-n9c(C(=O)NCC(F)(F)F)nnc9-c9cc(C(C)C)c(O)cc9O)cc8)CC7)CC6)CC5)nc4c3F)c12 [Compound 132] | < 100 | < 100 | < 100 | < 100 | < 100 |
| C#Cc1cccc2cc(O)cc(-c3ncc4c(N5CC6CCC(C5)N6C(=O)C(F)(F)F)nc(OCC5(CN6CCN(CC7CCN(Cc8ccc9c(c8)CN(C(=O)c8cc(C(C)C)c(O)cc8O)C9)CC7)CC6)CC5)nc4c3F)c12 [Compound 142] | 100 to 1000 | 100 to 1000 | 100 to 1000 | 100 to 1000 | 100 to 1000 |
| C#Cc1cccc2cc(O)cc(-c3ncc4c(N5CC6CCC(C5)N6C(=O)C(F)(F)F)nc(OCC5(CN6CCN(CC7CCN(Cc8ccc(-n9c(C(=O)NCC(F)(F)F)nnc9-c9cc(C(C)C)c(O)cc9O)cc8)CC7)CC6)CC5)nc4c3F)c12 [Compound 143] | < 100 | < 100 | 100 to 1000 | < 100 | 100 to 1000 |
| C#Cc1cccc2cc(O)cc(-c3ncc4c(N5CC6CCC(C5)N6)nc(OCC5(CN6CCN(CC7CCN(Cc8ccc9c(c8)CN(C(=O)c8cc(C(C)C)c(OC)cc8O)C9)CC7)CC6)CC5)nc4c3F)c12 [Compound 144] | 100 to 1000 | 100 to 1000 | < 100 | < 100 | 100 to 1000 |
| C#Cc1c(F)ccc2cc(O)cc(-c3ncc4c(N5CC6CCC(C5)N6)nc(OCC5(CN6CCN(CC7CCN(c8ccc(-n9c(C(=O)NCC)nnc9-c9cc(C(C)C)c(O)cc9O)cc8)CC7)CC6)CC5)nc4c3F)c12 [Compound 145] | < 100 | < 100 | < 100 | < 100 | 100 to 1000 |
| C#Cc1c(F)ccc2cc(O)cc(-c3ncc4c(N5CC6CCC(C5)N6C(=O)C(F)(F)F)nc(OCC5(CN6CCN(CC7CCN(Cc8ccc(-n9c(C(=O)NC(C)C(F)(F)F)nnc9-c9cc(C(C)C)c(O)cc9O)cc8)CC7)CC6)CC5)nc4c3F)c12 (stereo not shown) [Compound 146] | < 100 | < 100 | 100 to 1000 | < 100 | 100 to 1000 |
| C#Cc1c(F)ccc2cc(O)cc(-c3ncc4c(N5CC6CCC(C5)N6C(=O)C(F)(F)F)nc(OCC5(CN6CCN(CC7CCN(Cc8ccc(-n9c(C(=O)NCC)nnc9-c9cc(C(C)C)c(O)cc9O)cc8)CC7)CC6)CC5)nc4c3F)c12 [Compound 147] | < 100 | < 100 | < 100 | < 100 | 100 to 1000 |
| C#Cc1c(F)ccc2cc(O)cc(-c3ncc4c(N5CC6CCC(C5)N6)nc(OCC5(CN6CCN(CC7CCN(Cc8ccc(-n9c(C(=O)NCC)nnc9-c9cc(C(C)C)c(O)cc9O)cc8)CC7)CC6)CC5)nc4c3F)c12 [Compound 148] | < 100 | < 100 | < 100 | < 100 | < 100 |
| C#Cc1c(F)ccc2cc(O)cc(-c3ncc4c(N5CC6CCC(C5)N6)nc(OCC5(CN6CCN(CC7CCN(Cc8ccc(-n9c(C(=O)NCC)nnc9-c9cc(CC)c(O)cc9O)cc8)CC7)CC6)CC5)nc4c3F)c12 [Compound 149] | < 100 | < 100 | < 100 | < 100 | < 100 |
| C#Cc1cccc2cc(O)cc(-c3ncc4c(N5CC6CCC(C5)N6C(C)=O)nc(OCC5(CN6CCN(CC7CCN(Cc8ccc(-n9c(C(=O)NC(C)C(F)(F)F)nnc9-c9cc(C(C)C)c(O)cc9O)cc8)CC7)CC6)CC5)nc4c3F)c12 (stereo not shown) [Compound 150] | < 100 | < 100 | 100 to 1000 | < 100 | 100 to 1000 |
| C#Cc1cccc2cc(O)cc(-c3ncc4c(N5CC6CCC(C5)N6C(C)=O)nc(OCC5(CN6CCN(CC7CCN(Cc8ccc9c(c8)CN(C(=O)c8cc(C(C)C)c(O)cc8O)C9)CC7)CC6)CC5)nc4c3F)c12 [Compound 151] | 100 to 1000 | 100 to 1000 | < 100 | 100 to 1000 | 100 to 1000 |
| C#Cc1cccc2cc(O)cc(-c3ncc4c(N5CC6CCC(C5)N6)nc(OCC5(CN6CCN(CC7CCN(Cc8ccc9c(c8)CN(C(=O)c8cc(C(C)C)c(O)cc8OC)C9)CC7)CC6)CC5)nc4c3F)c12 [Compound 152] | < 100 | 100 to 1000 | < 100 | < 100 | 100 to 1000 |
| C#Cc1c(F)ccc2cc(O)cc(-c3ncc4c(N5CC6CCC(C5)N6)nc(OCC5(CN6CCN(CC7CCN(Cc8ccc(-n9c(C(=O)NC(C)C(F)(F)F)nnc9-c9cc(C(C)C)c(O)cc9O)cc8)CC7)CC6)CC5)nc4c3F)c12 (stereo not shown) [Compound 153] | < 100 | < 100 | < 100 | < 100 | < 100 |
| C#Cc1c(F)ccc2cc(O)cc(-c3ncc4c(N5CC6CCC(C5)N6)nc(OCC5(CN6CCN(CC7CCN(Cc8ccc(-n9c(C(=O)NCC(F)(F)F)nnc9-c9cc(C(C)C)c(O)cc9O)cc8)CC7)CC6)CC5)nc4c3F)c12 [Compound 154] | < 100 | < 100 | < 100 | < 100 | < 100 |
| C#Cc1cccc2cc(O)cc(-c3ncc4c(N5CC6CCC(C5)N6)nc(OCC5(CN6CCN(Cc7ccc(-n8c(C(=O)NC(C)C(F)(F)F)nnc8-c8cc(C(C)C)c(O)cc8O)cc7)CC6)CC5)nc4c3F)c12 (stereo not shown) [Compound 155] | 100 to 1000 | 100 to 1000 | < 100 | 100 to 1000 | 100 to 1000 |
| C#Cc1c(F)ccc2cc(O)cc(-c3nc(OC)c4c(N5CC6CCC(C5)N6)nc(OCC5(CN6CCN(CC7CCN(Cc8ccc9c(c8)CN(C(=O)c8cc(C(C)C)c(O)cc8O)C9)CC7)CC6)CC5)nc4c3F)c12 [Compound 156] | < 100 | 100 to 1000 | < 100 | < 100 | < 100 |
